Test results from patent US9968617B2, “Local topical administration formulations containing indoxacarb” (E.I. du Pont de Nemours and Company, priority 2006, dated 2018).
Several values for one entry are separate records, joined by “and”; a condition that tells them apart may be missing. Equal entries are not always repeated.

Experiments:
[1] = tested on: fleas (Ctenocephalides felis); assay: Dose response study on canines against fleas, Indoxacarb spot-on (Example 1); format: in vivo; settings: for reduction of flea infestation: dogs
Method: A non-blinded prospective longitudinal artificial infestation parasite efficacy pen study was conducted with a fully randomized design (ranking and blocking based on breed and pre-treatment flea count). There were 5 treatment groups of 6 dogs each, and an untreated control group.
Thirty-three (33) adult dogs (Labrador Retrievers and Jack Russell Terriers) were inducted, clinically examined, weighed, identified and allocated to study pens on Day −7. Each dog was artificially infested with 100 fleas (Ctenocephalides felis) on Day −5 and again on Day −2. On Day −1 flea thumb counts were performed on all dogs and 30 dogs were selected for inclusion. These dogs were randomly allocated to 5 similar groups of 6 animals on the basis of breed and flea counts, and groups were allocated to study pens. On Day 0, Groups B, C, D and E were treated with a local topical administration formulation containing Indoxacarb (DPX-K128) dissolved in a mixture of Dimethyl Isosorbide (DMI) and Propylene Glycol Monomethyl Ether (90% Dimethyl Isosorbide (DMI) and 10% Propylene Glycol Monomethyl Ether by volume) to form a total concentration of 75, 100, 125 or 150 g/L of Indoxacarb (DPX-K128). The starting material to prepare the formulation was a mixture of DPX-K128-and DPX-KN127 (the R-isomer of Formula 1) and contained 70.43% Indoxacarb (DPX-K128). […] The formulation was administered via spot-on application (i.e. applying in liquid form to less than or equal to 10% of the surface area of the animal) to the dorsal midline at the rate of 0.1 mL/1 kg. Group A remained untreated as controls. Group B was dosed at the rate of 7.5 mg/kg; Group C at the rate of 10.0 mg/kg; Group D at the rate of 12.5 mg/kg; and Group E at the rate of 15.0 mg/kg.
Flea thumb counts were performed at 24 hours. Flea comb counts were performed at 48 hours post-treatment and all dogs then treated with Capstar® oral tablets (Nitenpyram, Novartis Animal Health) to remove all fleas prior to the next infestation. Animals were re-infested with 100 adult fleas at 7, 14, 21 and 28 days post-treatment. At 24 hours after each infestation, flea comb counts were performed followed by Capstar treatment.

fleas = assay: Effect of washing on persistency, flea comb count on dogs (Example 2); format: in vivo, Ctenocephalides felis; settings: for Group Average Count: Day 44; for Flea Count: individual dog, Day 44, infested with 100 fleas Day 43
Method: At completion of the study described in Experiment 1 above, a further washing study was conducted using the six dogs in Group E for a further two weeks.
During the two-week period, four of the six dogs from Group E were washed twice weekly in a non-insecticidal hydrobath, while the other two dogs from Group E were not washed and acted as controls. On Day 43 post-treatment, the 6 dogs were infested with 100 fleas and then had their ability to retain a flea infestation assessed on Day 44 by a flea comb count.

**Q.** With `COC(=O)N(C(=O)N1CO[C@@]2(C(=O)OC)Cc3cc(Cl)ccc3C2=N1)c1ccc(OC(F)(F)F)cc1` [Indoxacarb, (S)-methyl 7-chloro-2,5-dihydro-2-[[(methoxycarbonyl)[4-(trifluoromethoxy)phenyl]amino]carbonyl]indeno[1,2-e][1,3,4]oxadiazine-4a(3H)-carboxylate] as the compound, how does the “persistent efficacy, reduction” value ([1]; all four groups (7.5-15.0 mg/kg), from the 48 hour count until 29 days post-treatment) read?
**A.** ≥ 99%

**Q.** What about the “reduction of flea infestation” value ([1]; spot-on 7.5 mg/kg (Group B), 24 hrs post-treatment) of the same compound?
**A.** 97.9%

**Q.** And the “reduction of flea infestation” value ([1]; spot-on 7.5 mg/kg (Group B), 48 hrs post-treatment)?
**A.** 99.4%

**Q.** And the “reduction of flea infestation” value ([1]; spot-on 10.0 mg/kg (Group C), 24 hrs post-treatment)?
**A.** 97.9%

**Q.** What about the “reduction of flea infestation” value ([1]; spot-on 10.0 mg/kg (Group C), 48 hrs post-treatment) of the same compound?
**A.** 100%

**Q.** What about the “reduction of flea infestation” value ([1]; spot-on 12.5 mg/kg (Group D), 24 hrs post-treatment) of the same compound?
**A.** 99.0%

**Q.** What about the “reduction of flea infestation” value ([1]; spot-on 12.5 mg/kg (Group D), 48 hrs post-treatment) of the same compound?
**A.** 100%

**Q.** And the “reduction of flea infestation” value ([1]; spot-on 15.0 mg/kg (Group E), 24 hrs post-treatment)?
**A.** 100%

**Q.** And the “reduction of flea infestation” value ([1]; spot-on 15.0 mg/kg (Group E), 48 hrs post-treatment)?
**A.** 99.4%

**Q.** What about the persistence after washing (fleas; 44 days, after 4 shampoo hydrobath washes) of the same compound?
**A.** excellent persistence

**Q.** And the “Group Average Count” value (fleas; Treated Non-Wash)?
**A.** 0

**Q.** And the “Group Average Count” value (fleas; Treated Wash)?
**A.** 3

**Q.** And the “Flea Count” value (fleas; Treated Non-Wash (15.0 mg/kg))?
**A.** 0

**Q.** And the “Flea Count” value (fleas; Treated Wash (15.0 mg/kg, washed twice weekly for two weeks))?
**A.** 4 and 5 and 1 and 2
